Key:
[1] = target: T1, wild type AXL (wtAXL) receptor tyrosine kinase (Homo sapiens, UniProt P30530); test: NIH-3T3-AXL cellular tyrosine kinase assay (inhibition of AXL phosphorylation); format: cell-based; conditions: AXL phosphorylation in NIH-3T3-AXL (clone 22) cells, serum-depleted, 2 h with compound, immunoprecipitation / anti-phosphotyrosine blot
T1 construct: WtAXL cDNA was cloned into vector pLXSN(ESK) and transfected into Phoenix E packaging cells; expressed in transfected cells; host or cells: NIH3T3 N7 mouse fibroblasts, retrovirally infected (clone 22)
T1 sequence (P30530 26-894): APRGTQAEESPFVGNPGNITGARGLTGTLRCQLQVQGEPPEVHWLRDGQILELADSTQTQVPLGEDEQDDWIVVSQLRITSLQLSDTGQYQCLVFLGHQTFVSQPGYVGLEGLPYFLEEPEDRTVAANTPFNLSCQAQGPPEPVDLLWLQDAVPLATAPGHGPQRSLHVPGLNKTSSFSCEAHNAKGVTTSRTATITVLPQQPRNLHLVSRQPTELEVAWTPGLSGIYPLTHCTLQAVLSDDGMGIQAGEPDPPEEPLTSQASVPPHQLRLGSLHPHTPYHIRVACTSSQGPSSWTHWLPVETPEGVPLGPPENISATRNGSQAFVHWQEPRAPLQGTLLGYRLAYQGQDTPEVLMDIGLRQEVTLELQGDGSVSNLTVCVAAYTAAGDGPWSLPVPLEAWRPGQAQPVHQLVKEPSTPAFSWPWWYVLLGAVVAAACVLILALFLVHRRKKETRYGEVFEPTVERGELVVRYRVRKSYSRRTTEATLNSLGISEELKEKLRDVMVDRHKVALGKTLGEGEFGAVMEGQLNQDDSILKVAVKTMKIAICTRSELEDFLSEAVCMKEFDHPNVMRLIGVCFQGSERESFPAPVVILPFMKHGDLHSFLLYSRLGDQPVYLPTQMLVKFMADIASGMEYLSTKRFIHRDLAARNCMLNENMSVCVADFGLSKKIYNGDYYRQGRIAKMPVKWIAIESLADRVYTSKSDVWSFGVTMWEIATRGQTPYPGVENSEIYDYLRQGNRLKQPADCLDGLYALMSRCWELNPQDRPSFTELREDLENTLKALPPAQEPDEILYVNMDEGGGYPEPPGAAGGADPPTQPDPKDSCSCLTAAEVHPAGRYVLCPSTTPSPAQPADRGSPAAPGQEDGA
Method in brief: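 NIH3T3 clones stably expressing human wtAXL (puromycin-selected) were exposed to serially diluted compounds for 2 h. AXL was immunoprecipitated from lysates with anti-AXL antibody, and phosphorylation detected by anti-phosphotyrosine (4G10) western blot with ECL.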

Compound | IC50 [1] [µM] | melting point [°C]
COc1cc2nccc(Oc3ccc(NS(=O)(=O)c4ccccc4C(F)(F)F)c(C)c3)c2cc1OC [Example A113, N-[4-(6,7-Dimethoxy-quinolin-4-yloxy)-2-methyl-phenyl]-2-trifluoromethyl-benzenesulfonamide] | > 3 | 254 to 257
COc1cc2nccc(Oc3ccc(NS(=O)(=O)c4ccccc4OC(F)(F)F)cc3)c2cc1OC [Example A114, N-[4-(6,7-Dimethoxy-quinolin-4-yloxy)-phenyl]-2-trifluoromethoxy-benzenesulfonamide] | 0.47 | 222 to 223
COc1cc2nccc(Oc3ccc(NS(=O)(=O)c4cccc(Oc5ccccc5)c4)cc3)c2cc1OC [Example A115, N-[4-(6,7-Dimethoxy-quinolin-4-yloxy)-phenyl]-3-phenoxy-benzenesulfonamide] | 1.26 | 172 to 174
COc1cc(S(=O)(=O)Nc2ccc(Oc3ccnc4cc(OC)c(OC)cc34)cc2)ccc1F [Example A116, N-[4-(6,7-Dimethoxy-quinolin-4-yloxy)-phenyl]-4-fluoro-3-methoxy-benzenesulfonamide] | > 3 | 222 to 224
COc1cc2nccc(Oc3ccc(NS(=O)(=O)c4ccc(Br)c(Cl)c4)cc3)c2cc1OC [Example A117, 4-Bromo-3-chloro-N-[4-(6,7-dimethoxy-quinolin-4-yloxy)-phenyl]-benzenesulfonamide] | > 10 | 232 to 234
COc1cc2nccc(Oc3ccc(NS(=O)(=O)c4cc(F)ccc4F)cc3)c2cc1OC [Example A118, N-[4-(6,7-Dimethoxy-quinolin-4-yloxy)-phenyl]-2,5-difluoro-benzenesulfonamide] | 0.54 | 260 to 263
COc1cc2nccc(Oc3ccc(NS(=O)(=O)c4ccccc4OC(F)(F)F)cc3OC)c2cc1OC [Example A119, N-[4-(6,7-Dimethoxy-quinolin-4-yloxy)-3-methoxy-phenyl]-2-trifluoromethoxy-benzenesulfonamide] | > 3 | 211 to 212
COc1cc2nccc(Oc3ccc(NS(=O)(=O)c4cccc(Oc5ccccc5)c4)cc3OC)c2cc1OC [Example A120, N-[4-(6,7-Dimethoxy-quinolin-4-yloxy)-3-methoxy-phenyl]-3-phenoxy-benzenesulfonamide] | > 10 | 106 to 107
COc1cc(S(=O)(=O)Nc2ccc(Oc3ccnc4cc(OC)c(OC)cc34)c(OC)c2)ccc1F [Example A121, N-[4-(6,7-Dimethoxy-quinolin-4-yloxy)-3-methoxy-phenyl]-4-fluoro-3-methoxy-benzenesulfonamide] | > 10 | 109 to 110
COc1cc2nccc(Oc3ccc(NS(=O)(=O)c4ccc(Br)c(Cl)c4)cc3OC)c2cc1OC [Example A122, 4-Bromo-3-chloro-N-[4-(6,7-dimethoxy-quinolin-4-yloxy)-3-methoxy-phenyl]-benzenesulfonamide] | > 10 | 110 to 113
COc1cc2nccc(Oc3ccc(NS(=O)(=O)c4ccc(Br)c(Cl)c4)cc3F)c2cc1OC [Example A124, 4-Bromo-3-chloro-N-[4-(6,7-dimethoxy-quinolin-4-yloxy)-3-fluoro-phenyl]-benzenesulfonamide] | > 3 | 144 to 147
COc1cc2nccc(Oc3ccc(NS(=O)(=O)c4ccccc4OC(F)(F)F)cc3F)c2cc1OC [Example A126, N-[4-(6,7-Dimethoxy-quinolin-4-yloxy)-3-fluoro-phenyl]-2-trifluoromethoxy-benzenesulfonamide] | 0.13 | 203 to 204
COc1cc2nccc(Oc3ccc(NS(=O)(=O)c4cc(Cl)cc(Cl)c4OC)cc3C)c2cc1OC [Example A127, 3,5-Dichloro-N-[4-(6,7-dimethoxy-quinolin-4-yloxy)-3-methyl-phenyl]-2-methoxy-benzenesulfonamide] | > 3 | 206 to 208
